Tests used:
Format in all cases: biochemical
[1] = target: T1, complex I from mouse heart (Mus musculus) (Mus musculus, UniProt P03888+Q91WD5+Q91YT0+Q9DC70); test: NADH:O2 oxidoreduction (FET) in CI proteoliposomes with AOX, spectrophotometric; conditions: 200 μM NADH, membrane Q10, pH 7.5, 32 °C
T1 construct: gene Ndufv1; native complex purified from mouse heart, whole multi-subunit enzyme, reconstituted in proteoliposomes with E. coli F1FO ATP synthase

[2] = target: T2, Complex I from Y. lipolytica (Yarrowia lipolytica, UniProt Q9B6E8+Q9UUT7+Q9UUU1+Q9UUU2); test: as above; conditions: 200 μM NADH
T2 construct: gene nubm; complex purified from Y. lipolytica, whole multi-subunit enzyme, reconstituted in proteoliposomes with E. coli F1FO ATP synthase

[3] = target: T1, complex I from mouse heart (Mus musculus); test: NAD+ reduction by RET in CI-F1FO proteoliposomes with GlpD, spectrophotometric; conditions: Δp-linked RET; 1 mM NAD+, ATP, rac-G3P, β-CD, pH 7.5, 32 °C
P. pastoris complex I [4] = target: T3, P. pastoris complex I (Komagataella pastoris, UniProt E1UWA8+E1UWB5+E1UWC2); test: as above; conditions: membrane concentration, Δp-linked, ATP, rac-G3P, β-CD, preheated 37 °C 15 min, assay pH 7.5, 32 °C
T3 construct: gene nucm; native complex purified from P. pastoris, whole multi-subunit enzyme, reconstituted in proteoliposomes with E. coli F1FO ATP synthase; with NADH dehydrogenase [ubiquinone] flavoprotein 1, mitochondrial (51 kDa subunit)

P. pastoris complex I [5] = target: T3, P. pastoris complex I; test: NADH:O2 oxidoreduction (FET) in CI proteoliposomes with AOX, spectrophotometric; conditions: membrane Q10 concentration; 200 μM NADH, pH 7.5, 32 °C
[6] = target: T4, complex I from B. taurus (bovine complex I) (Bos taurus, UniProt P03887+P17694+P25708+P42026); test: as above
T4 construct: gene NDUFS2; AOX or GlpD added; with NADH dehydrogenase [ubiquinone] flavoprotein 2, mitochondrial; NADH-ubiquinone oxidoreductase 75 kDa subunit, mitochondrial; NADH dehydrogenase [ubiquinone] iron-sulfur protein 3, mitochondrial; NADH dehydrogenase [ubiquinone] iron-sulfur protein 8, mitochondrial; NADH-ubiquinone oxidoreductase chain 2; NADH-ubiquinone oxidoreductase chain 3; NADH-ubiquinone oxidoreductase chain 4; NADH-ubiquinone oxidoreductase chain 4L; NADH-ubiquinone oxidoreductase chain 5; NADH-ubiquinone oxidoreductase chain 6

NC(=O)C1=CN([C@@H]2O[C@H](COP(=O)(O)OP(=O)(O)OC[C@H]3O[C@@H](n4cnc5c(N)ncnc54)[C@H](O)[C@@H]3O)[C@@H](O)[C@H]2O)C=CC1 [NADH]
NADH:O2 oxidoreduction (FET) in CI proteoliposomes with AOX, spectrophotometric [1]: Representative FET activities for proteoliposomes containing complex I from B. taurus (Bt), M. musculus (Mm) | NADH:O2 oxidoreduction (FET) in CI proteoliposomes with AOX, spectrophotometric ([2]; membrane Q10, pH 7.5, 32 °C): Complex I from Y. lipolytica consistently showed remarkably high rates of NADH oxidation in proteoliposomes

NC(=O)c1ccc[n+]([C@@H]2O[C@H](COP(=O)(O)OP(=O)(O)OC[C@H]3O[C@@H](n4cnc5c(N)ncnc54)[C@H](O)[C@@H]3O)[C@@H](O)[C@H]2O)c1 [NAD^+]
NAD+ reduction by RET in CI-F1FO proteoliposomes with GlpD, spectrophotometric [3]: by Δp-linked NAD^+ reduction (Figure 6B), that mouse complex I is capable of RET

COc1c(O)c(C)c(C/C=C(\C)CC/C=C(\C)CC/C=C(\C)CC/C=C(\C)CC/C=C(\C)CC/C=C(\C)CC/C=C(\C)CC/C=C(\C)CC/C=C(\C)CCC=C(C)C)c(O)c1OC [Q10H2]
KM (Q10H2) (P. pastoris complex I [4]): the KM for Q10H2 was again significantly higher than for Q10

COC1=C(OC)C(=O)C(C/C=C(\C)CC/C=C(\C)CC/C=C(\C)CC/C=C(\C)CC/C=C(\C)CC/C=C(\C)CC/C=C(\C)CC/C=C(\C)CC/C=C(\C)CCC=C(C)C)=C(C)C1=O [Q10]
NADH:O2 oxidoreduction (FET) in CI proteoliposomes with AOX, spectrophotometric ([2]; membrane Q10 as acceptor, pH 7.5, 32 °C): Complex I from Y. lipolytica consistently showed remarkably high rates of NADH oxidation in proteoliposomes | KM (Q10) (P. pastoris complex I [5]): The KM values for both Q10 and Q10H2 were both lower for P. pastoris

C/C=C(\C)[C@H](O)[C@H](C)/C=C(C)/C=C/C/C(C)=C/Cc1nc(OC)c(OC)c(O)c1C [piericidin A]
IC50 [6]: 7.8 ± 0.1 nM
